The nature of data set [1]: Metabolite identification in rat serum by UPLC-LTQ-Orbitrap-MS2 after HCT extract. For all read-outs here: key: +: detected; —: undetected. The data set is classed as in vivo, SD rats. Conditions: for Metabolite detected in Serum, 50H: 50H group (600 mg/kg BW 50 °C hot-air dried HCT extract); for Metabolite detected in Serum, FDH: FDH group (600 mg/kg BW freeze-dried HCT extract). As to the method: The chromatographic separation was performed on an ACQUITY UPLC BEH C18 column (2.1 × 100 mm, 1.7 μm) maintained at 25 °C. […] The mobile phase flow rate was maintained at 300 μL/min with a 2 μL injection volume.
Mass spectrometric detection was carried out using an LTQ-Orbitrap system equipped with a HESI-II source operating in both positive and negative ionization modes. Full scan MS data were acquired over m/z 50–2000 with mass resolution set to 30,000 (at m/z 400). For structural elucidation, data-dependent MS/MS scans were triggered using a normalized collision energy of 45 eV in the CID cell. The diode array detector was simultaneously monitored at 280 nm and 320 nm. All instrumental operations and data acquisition were controlled by Xcalibur v2.0 software (Thermo Scientific).
The animal study protocol was approved by the Animal Ethics Committee of Jiangxi University of Chinese Medicine (Approval No. TEMPOR20230112). A total of 24 female SD rats (200 ± 20 g) were obtained from the Laboratory Animal Center of Jiangxi University of Chinese Medicine (Nanchang, China). […] After one week of acclimatization with ad libitum access to sterilized food and water, the rats were randomly divided into three groups (n = 8), including a negative control, FDH: freeze-dried HCT extract (treated with 600 mg/kg BW freeze-dried HCT extracts), 50H: 50 °C hot-air dried HCT extract (treated with 600 mg/kg BW 50 °C hot-air dried HCT extracts). Blood collection and the pretreatment of serum were conducted following our previously published protocols. The identification and quantification of metabolites in rat samples were performed using analytical methodologies consistent with those employed in our previous investigations.

A short description of data set [2]: Pharmacokinetics of HCT constituents in rat plasma after a single dose of HCT extract. The data set is classed as in vivo, SD rats. How it is done:
The quantification of target compounds was conducted using an LC-TQ5200 triple quadrupole mass spectrometer (Hexin Instruments, Guangzhou, China) coupled with a HILIC column (100 × 2.1 mm, 1.8 μm; ANPEL, Shanghai, China). Chromatographic separation was achieved under isocratic conditions with a mobile phase comprising (A) 0.1% formic acid in water and (B) acetonitrile (50:50, v/v) for 4 min at a flow rate of 0.3 mL/min. The column temperature was maintained at 30 °C with a 10 μL injection volume.
Mass spectrometric detection was performed in positive electrospray ionization (ESI) mode with multiple reaction monitoring (MRM). The optimized ion source parameters were as follows: drying gas temperature, 500 °C; spray voltage, 5500 V; nebulizer gas pressure, 70 psi (482.3 kPa); drying gas flow, 8 L/min; and curtain gas flow, 3 L/min. The collision cell operated with 0.4 mL/min collision gas flow under the following voltage settings: curtain plate 800 V, orifice 70 V, detector 2300 V, with cell entrance and exit voltages of 30 V and 1 V, respectively. All analyses were performed with three replicates (n = 3).
The animal study protocol was approved by the Animal Ethics Committee of Jiangxi University of Chinese Medicine (Approval No. TEMPOR20230112). A total of 24 female SD rats (200 ± 20 g) were obtained from the Laboratory Animal Center of Jiangxi University of Chinese Medicine (Nanchang, China). Prior to experimentation, the rats were acclimated for 7 days in an air-conditioned room maintained at 24 ± 1 °C with a 12 h light/dark cycle. After one week of acclimatization with ad libitum access to sterilized food and water, the rats were randomly divided into three groups (n = 8), including a negative control, FDH: freeze-dried HCT extract (treated with 600 mg/kg BW freeze-dried HCT extracts), 50H: 50 °C hot-air dried HCT extract (treated with 600 mg/kg BW 50 °C hot-air dried HCT extracts). Blood collection and the pretreatment of serum were conducted following our previously published protocols. The identification and quantification of metabolites in rat samples were performed using analytical methodologies consistent with those employed in our previous investigations.

The mark [3] stands for this setting: female, SD, 50H: 600 mg/kg BW 50 °C hot-air dried HCT extract.
The mark [4] stands for this setting: female, SD, rat, plasma, 600 mg/kg, 50H: 600 mg/kg BW 50 °C hot-air dried HCT extract.
[5] abbreviates: female, SD, rat, plasma, 600 mg/kg, FDH: 600 mg/kg BW freeze-dried HCT extract.
[6] abbreviates: 50H: 600 mg/kg BW 50 °C hot-air dried HCT extract.

Take `COc1cc(C(=O)O)ccc1OC(C)=O` [M3, 4-acetyloxy-3-methoxybenzoic acid]: in data set [1], the “Metabolite detected in Serum, 50H” value is recorded as “+” and the “Metabolite detected in Serum, FDH” value is “+”.
Take `O=C(O)c1ccc(O)c(O)c1` [M2, protocatechuic acid]: in data set [1], the “Metabolite detected in Serum, 50H” value was “+” and the “Metabolite detected in Serum, FDH” value was “+”.
`Nc1ccc(CCC(=O)O)c(C(=O)O)c1` [M14]: in data set [1], the “Metabolite detected in Serum, 50H” value is “+” and the “Metabolite detected in Serum, FDH” value was “+”.
As to `O=C(/C=C/c1ccc(O)c(O)c1)O[C@@H]1C[C@](O)(C(=O)O)C[C@@H](O)[C@H]1O` [Chlorogenic acid, chlorogenic acid], in data set [2] (setting [3]), the Tmax (usually the time from dosing to the highest level) worked out at 1.5 h. Besides, in data set [2] (setting [4]), the AUC – broadly, concentration integrated over time – was 0.222 ± 0.0225 µM·h; the peak level (Cmax) was 84.4 ± 2.26 nM; the half-life (as a rule, the time needed for the level to fall by half in the phase considered) was 2.05 ± 0.62 h. Besides, in data set [2] (setting [5]), the AUC came out at 0.231 ± 0.00787 µM·h, the concentration peaked (Cmax) at 104 ± 9.47 nM and the half-life is 2.25 ± 0.7 h.
Turning to `COc1c(O)cc2oc(-c3ccc(O)cc3)cc(=O)c2c1O` [M18, hispidulin], the “Metabolite detected in Serum, FDH” value in data set [1] is “+”.
As for `O=C(O)[C@H]1O[C@@H](Oc2cc3oc(-c4ccc(O)cc4)cc(=O)c3c(O)c2O)[C@H](O)[C@@H](O)[C@@H]1O` [Scutellarin, scutellarin], in data set [2] (female, SD, FDH: 600 mg/kg BW freeze-dried HCT extract), the Tmax worked out at 1.5 h. In data set [2] (setting [4]), the AUC amounted to 0.121 ± 0.00462 µM·h; the peak concentration (Cmax) (in general, the highest concentration seen after dosing) is 22 ± 4.15 nM; the half-life is 9.26 ± 4.35 h. Moreover, in data set [2] (setting [5]), the AUC came to 0.116 ± 0.00702 µM·h, the peak concentration (Cmax) is 23.9 ± 3.17 nM and the half-life is 6.91 ± 0.65 h.
Take `O=C(O)CCc1ccc(O)c(O)c1` [M10, dihydrocaffeic acid]: in data set [1], the “Metabolite detected in Serum, 50H” value is “+” and the “Metabolite detected in Serum, FDH” value is “+”.
As to `CCCCCCCCC=CCCCCCCCC(=O)O` [M37, 9-octadecenoic acid], in data set [1], the “Metabolite detected in Serum, 50H” value is “+” and the “Metabolite detected in Serum, FDH” value is “+”.
With `O=c1c(O)c(-c2ccc(O)c(O)c2)oc2cc(O)cc(O)c12` [Quercetin, quercetin], the figures for the Cmax in data set [2] (setting [6]) and in data set [2] (setting [5]) were 378 ± 21.4 nM and 410 ± 12 nM, respectively. Besides, the T1/2 was 7.28 ± 4.47 h in data set [2] (setting [6]) and 4.46 ± 0.14 h in data set [2] (FDH: 600 mg/kg BW freeze-dried HCT extract). Further, the Tmax in data set [2] (setting [3]) was found to be 2 h. Also, the figures for the AUC in data set [2] (setting [4]) and in data set [2] (setting [5]) were 2.32 ± 0.0574 µM·h and 2.551 ± 0.017 µM·h, respectively.
In the case of `C[C@@H]1O[C@@H](OC[C@H]2O[C@@H](Oc3c(-c4ccc(O)c(O)c4)oc4cc(O)cc(O)c4c3=O)[C@H](O)[C@@H](O)[C@@H]2O)[C@H](O)[C@H](O)[C@H]1O` [Rutin, rutin], the Tmax in data set [2] (setting [3]) came to 1 h. In data set [2] (setting [4]), this compound gave an AUC of 0.277 ± 0.0123 µM·h, a Cmax of 125 ± 4.95 nM and a half-life of 2.04 ± 0.5 h. In data set [2] (setting [5]), this compound gave an AUC of 0.328 ± 0.00568 µM·h, a Cmax of 136 ± 16 nM and a half-life of 2.61 ± 1.23 h.
Turning to `CC(O)CC(=O)O` (stereo not shown) [M13, 3-hydroxybutyrate], the “Metabolite detected in Serum, 50H” value in data set [1] is “+”.
As to `O=c1cc(-c2ccc(O)cc2)oc2cc(O)cc(O)c12` [M23, apigenin], the “Metabolite detected in Serum, FDH” value in data set [1] was “+”.
For the compound `CCCCCCCCCC(=O)CC(=O)O` [M27, decanoyl acetic acid], in data set [1], the “Metabolite detected in Serum, 50H” value is recorded as “+” and the “Metabolite detected in Serum, FDH” value is on record as “+”.

The record behind these values is article PMC12154787, “Comprehensive Evaluation of the Effects of Hot Air Drying Temperature on the Chemical Composition, Flavor Characteristics and Biological Activity of Houttuynia cordata Thunb” (Foods, 2025).
